Like-named read-outs stand apart in the source and are kept apart here.
Legend:
human MLKL (full length) = human MLKL (full length) (Homo sapiens (Human), UniProt Q8NB16); test: KINOMEscan binding assay, human MLKL (full length); conditions: equilibrium dissociation constant
Procedure, shortened: (§1)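 Kd values come from dose-response fits to the Hill equation (Hill slope −1, Levenberg–Marquardt least squares). Compound competed with bead-bound ligand for tagged kinase, and remaining kinase was measured by qPCR after elution. Dilution series: 11 points, 3-fold, 1% DMSO final, top 30,000 nM in most runs.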

U937 cells = test: Counter screen: U937 cell viability without TSQ cocktail (off-target effect); set-up: species or system human; conditions: read-out: Off-target effect (IC50 cell-based assay)
Procedure, shortened: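 Off-target viability counter screen: compounds titrated 36 μM down 1:3 over 10 points (0.3% DMSO) on 20,000 U937 cells/well, no TNF/Smac mimetic/Q-VD-OPh added, 48 h incubation. ATP-based CellTiter-Glo luminescence, four-parameter logistic IC50.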

human RIPK3 = human RIPK3 (Homo sapiens (Human), UniProt Q9Y572); test: KINOMEscan binding assay, human RIPK3; conditions: equilibrium dissociation constant
Procedure, shortened: as §1

human RIPK1 = human RIPK1 (Homo sapiens (Human), UniProt Q13546); test: KINOMEscan binding assay, human RIPK1; conditions: equilibrium dissociation constant
Procedure, shortened: as §1

[1] = tested on: U937 human histiocytic leukemia cell line; test: Inhibition of TSQ induced necroptosis in U937 cells (CellTitre-Glo); conditions: 48 hours, read-out: Inhibition of TSQ-induced necroptosis (IC50 cell-based assay)
Procedure, shortened: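 Necroptosis was induced with TNF-Fc (100 ng/ml), Smac mimetic (500 nM) and Q-VD-OPh (10 μM) in 20000 U937 cells/well exposed to a 10-point, 3-fold compound series (top 36 μM, 0.3% DMSO). ATP luminescence read after 48 h; 4-parameter fit gave IC50. Parallel TSQ-free wells assessed compound toxicity.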

[2] = tested on: Immortalised Mouse Dermal Fibroblasts (MDFs); test: Inhibition of TSI induced necroptosis in mouse dermal fibroblasts (CellTitre-Glo); conditions: MDF cells, TSI cocktail (TNF, Smac mimetic, IDN-6556), read-out: Inhibition of TSI-induced necroptosis (IC50 cell-based assay) in MDF
Protocol: Cellular Assay: Screening Compounds for Inhibition of TSI Induced Necroptosis in, 384 well plate format. • Cell Line ID: Immortalised Mouse Dermal Fibroblasts (MDFs). • Cell Concentration (cells/well): Final cell density is 2200 cells per well. • Cell growth medium: DMEM medium+7.4% Fetal Bovine Serum (FBS). Cells are cultured in Corning 150 cm^2 tissue culture flasks with vented caps at 37° C./10% CO2. • Incubation: Plates were incubated for 30 minutes following addition of compounds and then 3 hours incubation with death stimuli (TSI cocktail) at 37° C./10% CO2 in a humidified incubator. • Compound concentration: 36 μM starting concentration, 1:3 dilution, 10 point • DMSO final concentration (% v/v): 0.3%. Compounds in TSI Cocktail (T: TNF; S: Smac Mimetic; I: IDN-6556) and their Final Concentrations: • rhTNF (100 ng/ml) • Compound A (500 nM)—Smac mimetic, Tetralogic and SYNthesis med chem • IDN-6556 (10 μM)—Selleckchem (S7775)
The cellular assay was carried out according to the following steps: • 1. Each well was prepared by sequential addition of: • a. 40 μL of cell suspension (5.5×10^4 cells/mL) was added to each well to provide a final cell concentration of 2,200 cells per well. • b. After 24 hours, DMSO (control; columns 1-2 and 23-24) or compound in DMSO—addition was performed using acoustic transfer of nL volumes of stock compound to give final test concentrations of 36, 12, 4, 1.3, 0.44, 0.148, 0.049, 0.016, 0.005 and 0.002 μM. All wells were backfilled with DMSO to a final total volume in the well of 100 nL. • c. Following compound/DMSO addition in step (b), Plates were incubated for 30 minutes at 37° C./10% CO2 in a humidified incubator and then 10 μL of 5×TSI cocktail (except to positive controls; columns 2 and 24) was added to each well. • 2. After 3 hours, plate was removed from the 37° C. incubator and equilibrated to room temperature for 15 minutes. • 3. 15 μL of room temperature CellTitre-Glo2™ (Promega™) was added to each well. • 4. Shook plates for 2 minutes (˜600 rpm) and incubated at room temperature for 15 minutes to allow signal to stabilise. • 5. Read luminescence readout on a plate reader.
Percent viability was calculated for each compound according to equation (2): […]
10 point titration curves were fitted with the 4 parameter logistic nonlinear regression model and the IC50 reported reflect the inflection point of the curve for curve fitting.
• Assay involving the TSI cocktail (T: TNF; S: Smac mimetic; I: IDN-6556): TSI treatment ensures that cells specifically undergo necroptotic cell death. TNF activates the TNF receptor, Smac mimetic directs the signal away from proinflammatory signaling and toward the RIPK1/RIPK3-mediated cell death pathways, and IDN-6556 (Caspase inhibitor) ensures that the apoptotic response is blocked leaving only the programmed necrosis response. The compounds' activity (solution in DMSO) tested in this TSI-induced assay was evaluated by determining the number of viable cells in culture by measuring the amount of ATP present as measured by CelltiterGlo.

[3] = TSQ cocktail (TNF, Smac mimetic, Q-VD-OPh)
[4] = Homo sapiens, U-937, compound without TSQ cocktail
[5] = Homo sapiens, U-937, TSQ cocktail (TNF, Smac mimetic, Q-VD-OPh)

Sequence of human MLKL (full length) (Q8NB16 whole entry): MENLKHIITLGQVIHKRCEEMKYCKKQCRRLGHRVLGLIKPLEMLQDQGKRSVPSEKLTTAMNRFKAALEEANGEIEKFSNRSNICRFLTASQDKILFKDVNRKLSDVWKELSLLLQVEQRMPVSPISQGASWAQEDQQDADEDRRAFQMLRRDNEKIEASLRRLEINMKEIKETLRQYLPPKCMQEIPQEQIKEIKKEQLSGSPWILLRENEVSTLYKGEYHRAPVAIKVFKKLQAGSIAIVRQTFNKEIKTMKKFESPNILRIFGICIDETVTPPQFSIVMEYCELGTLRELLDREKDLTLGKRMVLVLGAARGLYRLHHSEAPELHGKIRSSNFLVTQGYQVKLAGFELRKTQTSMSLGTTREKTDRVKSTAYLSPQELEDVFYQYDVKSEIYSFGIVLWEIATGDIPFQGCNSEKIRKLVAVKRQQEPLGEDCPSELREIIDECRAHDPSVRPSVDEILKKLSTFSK
Sequence of human RIPK1 (Q13546 whole entry): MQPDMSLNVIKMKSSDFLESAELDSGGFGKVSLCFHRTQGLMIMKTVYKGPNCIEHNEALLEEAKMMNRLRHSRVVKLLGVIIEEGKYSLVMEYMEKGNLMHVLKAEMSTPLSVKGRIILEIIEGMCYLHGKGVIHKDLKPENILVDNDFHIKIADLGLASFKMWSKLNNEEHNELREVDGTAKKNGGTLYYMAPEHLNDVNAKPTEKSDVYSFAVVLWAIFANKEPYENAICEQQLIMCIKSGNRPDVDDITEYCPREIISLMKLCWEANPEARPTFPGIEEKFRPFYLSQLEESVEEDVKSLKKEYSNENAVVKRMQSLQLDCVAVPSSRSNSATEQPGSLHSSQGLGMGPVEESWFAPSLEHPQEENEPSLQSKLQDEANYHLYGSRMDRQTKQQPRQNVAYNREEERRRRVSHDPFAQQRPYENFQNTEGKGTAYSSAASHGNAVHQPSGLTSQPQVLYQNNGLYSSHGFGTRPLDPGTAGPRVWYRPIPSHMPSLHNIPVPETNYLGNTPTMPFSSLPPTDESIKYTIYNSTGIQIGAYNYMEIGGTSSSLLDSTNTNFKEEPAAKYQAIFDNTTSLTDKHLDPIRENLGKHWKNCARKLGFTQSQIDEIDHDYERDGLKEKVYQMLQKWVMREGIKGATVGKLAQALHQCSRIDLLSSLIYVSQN
Sequence of human RIPK3 (Q9Y572 whole entry): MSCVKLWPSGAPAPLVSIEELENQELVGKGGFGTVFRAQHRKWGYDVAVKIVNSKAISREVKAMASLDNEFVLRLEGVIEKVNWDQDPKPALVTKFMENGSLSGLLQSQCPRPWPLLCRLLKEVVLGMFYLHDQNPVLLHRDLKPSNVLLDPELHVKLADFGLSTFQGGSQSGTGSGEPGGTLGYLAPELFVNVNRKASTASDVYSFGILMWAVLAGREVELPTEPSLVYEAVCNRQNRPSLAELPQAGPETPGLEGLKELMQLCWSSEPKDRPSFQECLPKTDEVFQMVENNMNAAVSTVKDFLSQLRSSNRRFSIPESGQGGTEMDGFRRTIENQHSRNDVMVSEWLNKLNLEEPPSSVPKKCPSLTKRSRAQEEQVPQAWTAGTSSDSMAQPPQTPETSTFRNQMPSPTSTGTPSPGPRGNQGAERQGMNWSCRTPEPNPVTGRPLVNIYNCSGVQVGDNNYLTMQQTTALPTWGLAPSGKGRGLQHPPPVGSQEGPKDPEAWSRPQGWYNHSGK

| Kd (human MLKL (full length)) [µM] | Kd (human RIPK3) [µM] | Kd (human RIPK1) [µM] | SMILES | IC50 (U937 cells; compound without TSQ cocktail) [µM] | IC50 [1, 3] [µM] | IC50 ([2]; 3 hours) [µM] | IC50 (U937 cells; [4]) [µM] | IC50 [1, 5] [µM] | IC50 ([2]; Mus musculus, Fibroblast, 3 h) [µM] |
| --- | --- | --- | --- | --- | --- | --- | --- | --- | --- |
| 0.001 to 0.1 | > 10 | > 10 | C[C@H](Oc1cc(-c2nn(C)c3c(-c4cnn(C5CCN(C)C(C)(C)C5)c4)cnc(N)c23)ccc1NS(=O)(=O)C(F)F)c1ccc(F)cc1 (single isomer, unassigned) [Compound 155, N-(4-(4-amino-1-methyl-7-(1-((S*)-1,2,2-trimethylpiperidin-4-yl)-1H-pyrazol-4-yl)-1H-pyrazolo[4,3-c]pyridin-3-yl)-2-((S)-1-(4-fluorophenyl)ethoxy)phenyl)-1,1-difluoromethanesulfonamide] | > 10 | < 0.01 | 0.1 to 1 |  |  |  |
| 0.001 to 0.1 | > 10 | > 10 | C[C@H](Oc1cc(-c2nn(C)c3c(-c4cnn(C5CCN(C)C6(CC6)C5)c4)cnc(N)c23)ccc1NS(=O)(=O)C(F)F)c1ccc(F)cc1 (single isomer, unassigned) [Compound 171, N-(4-(4-amino-1-methyl-7-(1-((R*)-4-methyl-4-azaspiro[2.5]octan-7-yl)-1H-pyrazol-4-yl)-1H-pyrazolo[4,3-c]pyridin-3-yl)-2-((S)-1-(4-fluorophenyl)ethoxy)phenyl)-1,1-difluoromethanesulfonamide] | > 10 | 0.01 to 1 | < 0.1 |  |  |  |
|  |  |  | C[C@H](Oc1cc(-c2nn(C)c3c(-c4cnn(C5CCNC(C(F)(F)F)C5)c4)cnc(N)c23)ccc1NS(=O)(=O)C(F)F)c1ccc(F)cc1 (stereo partly drawn) [Compound 149, N-(4-(4-amino-1-methyl-7-(1-(2-(trifluoromethyl)piperidin-4-yl)-1H-pyrazol-4-yl)-1H-pyrazolo[4,3-c]pyridin-3-yl)-2-((S)-1-(4-fluorophenyl)ethoxy)phenyl)-1,1-difluoromethanesulfonamide] |  |  |  | > 10 | < 0.01 | 0.1 to 1 |
|  |  |  | [2H]C([2H])([2H])N1CCC(n2cc(-c3cnc(N)c4c(-c5ccc(NS(=O)(=O)C(F)F)c(O[C@@H](C)c6ccc(F)cc6)c5)nn(C)c34)cn2)CC1(C)C (stereo partly drawn) [Compound 152, N-(4-(4-amino-7-(1-(2,2-dimethyl-1-(methyl-d3)piperidin-4-yl)-1H-pyrazol-4-yl)-1-methyl-1H-pyrazolo[4,3-c]pyridin-3-yl)-2-((S)-1-(4-fluorophenyl)ethoxy)phenyl)-1,1-difluoromethanesulfonamide] |  |  |  | > 10 | < 0.01 | 0.1 to 1 |
| 0.001 to 0.1 |  |  | C[C@H](Oc1cc(-c2nn(C)c3c(-c4cnn(C5CCN(C)C(C(F)F)C5)c4)cnc(N)c23)ccc1NS(=O)(=O)C(F)F)c1ccc(F)cc1 (stereo partly drawn) [Compound 158, N-(4-(4-amino-7-(1-(2-(difluoromethyl)-1-methylpiperidin-4-yl)-1H-pyrazol-4-yl)-1-methyl-1H-pyrazolo[4,3-c]pyridin-3-yl)-2-((S)-1-(4-fluorophenyl)ethoxy)phenyl)-1,1-difluoromethanesulfonamide] |  |  |  | > 10 | < 0.01 | < 0.1 |
|  |  |  | C[C@H](Oc1cc(-c2nn(C)c3c(-c4cnn(C5CCC(N(C)C)C5)c4)cnc(N)c23)ccc1NS(=O)(=O)C(F)F)c1ccc(F)cc1 (stereo partly drawn) [Compound 168, N-(4-(4-amino-7-(1-(3-(dimethylamino)cyclopentyl)-1H-pyrazol-4-yl)-1-methyl-1H-pyrazolo[4,3-c]pyridin-3-yl)-2-((S)-1-(4-fluorophenyl)ethoxy)phenyl)-1,1-difluoromethanesulfonamide] |  |  |  | > 10 | 0.01 to 1 | 0.1 to 1 |

Reference: patent US20250059188A1, “ARYLSULPHONAMIDE COMPOUNDS” (Anaxis Pharma Pty Ltd, priority 2021, published 2025)
